Results as given in patent US20230203041A1, “ANTAGONISTS OF THE ADENOSINE A2A RECEPTOR” (AdoRx Therapeutics Limited, priority 2020, published 2023).
Counter-ions that a name gives are not always drawn.

Experiments:
[1] = target: T1, human Adenosine A2b receptor (Homo sapiens, UniProt P29275); experiment: Adenosine receptor TR-FRET binding assay (CA200645 displacement), A2b; conditions: 30 nM CA200645, CHO cell membranes, 2 hours at room temperature
T1 construct: expressed in transfected cells; host or cells: CHO cell membranes
T1 sequence (P29275 1-332): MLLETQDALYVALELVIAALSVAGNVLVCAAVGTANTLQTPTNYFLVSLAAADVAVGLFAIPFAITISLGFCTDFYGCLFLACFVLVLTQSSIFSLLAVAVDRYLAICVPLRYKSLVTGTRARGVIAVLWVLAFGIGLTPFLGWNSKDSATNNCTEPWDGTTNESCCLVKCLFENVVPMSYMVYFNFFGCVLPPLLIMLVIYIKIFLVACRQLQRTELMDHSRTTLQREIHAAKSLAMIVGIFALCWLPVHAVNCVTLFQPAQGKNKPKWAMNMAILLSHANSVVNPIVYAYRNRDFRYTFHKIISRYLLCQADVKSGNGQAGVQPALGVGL

[2] = target: T2, human Adenosine A1 receptor (Homo sapiens, UniProt P30542); experiment: Adenosine receptor TR-FRET binding assay (CA200645 displacement), A1
T2 sequence (P30542 1-326): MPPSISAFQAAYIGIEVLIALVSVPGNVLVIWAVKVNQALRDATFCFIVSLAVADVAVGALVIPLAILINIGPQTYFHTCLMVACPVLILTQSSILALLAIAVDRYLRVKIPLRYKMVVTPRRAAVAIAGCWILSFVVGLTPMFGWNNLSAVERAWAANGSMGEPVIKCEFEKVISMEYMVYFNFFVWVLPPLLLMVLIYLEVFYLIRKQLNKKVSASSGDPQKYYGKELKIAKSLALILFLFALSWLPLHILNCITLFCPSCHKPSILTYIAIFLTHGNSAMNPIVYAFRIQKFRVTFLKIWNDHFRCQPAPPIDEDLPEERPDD

[3] = target: T3, human Adenosine A2a receptor (Homo sapiens, UniProt P29274); experiment: Adenosine receptor TR-FRET binding assay (CA200645 displacement), A2a; conditions: 100 nM CA200645, CHO cell membranes, 2 hours at room temperature
T3 construct: expressed in transfected cells; host or cells: CHO cell membranes
Experimental: All FRET binding experiments were conducted at room temperature in white 384-well plates, in assay binding buffer containing 1×LabMed (Cisbio, France), 100 μg/mL saponin, 1% DMSO and 0.02% pluronic acid. Binding of the fluorescently labelled Adenosine receptor antagonist XAC (CA200645, FRET acceptor) to terbium-labelled A1, A2a, A2b and A3 adenosine receptors (FRET donors) was detected by time-resolved FRET due to the close proximity of the donor and acceptor in a binding event. To investigate the ability of unlabelled test compounds to bind to Adenosine A1, A2a, A2b and A3 receptors, dose response curves were constructed that determined the ability of a range of concentrations to inhibit the binding of 30 nM CA200645 to the A2b receptor and 100 nM CA200645 to the A1, A2a, and A3 receptor.
Serial dilution (1:3 dilutions) of test compounds in neat DMSO and transfer of a 400 nL sample of test compound into the assay plate was carried out using the Mosquito (TTP Labtech, UK). The compound samples were incubated for 2 hours at room temperature with a fixed concentration of CA200645 defined for each receptor (see above) and CHO cell membranes containing the human Adenosine A1 (0.5 μg/well), A2a (0.3 μg/well), A2b (1 μg/well) or A3 (1 μg/well) receptor in 40 μL of assay buffer. Total and non-specific binding of CA200645 was determined in the absence and presence of 10 μM XAC, respectively. Following 2 hours incubation, the level of CA200645 binding was detected on a Pherastar FSX (BMG Labtech, Germany) using standard TR-FRET settings. The terbium donor was excited with three laser flashes at a wavelength of 337 nm, and donor and acceptor emission was detected at 620 nm and 665 nm wavelengths, respectively. FRET ratios were obtained by multiplying the acceptor/donor ratio value by 10,000. Specific binding was determined by subtracting the non-specific binding FRET ratio from the total binding FRET ratio. Compound IC50 curves were analysed using GraphPad Prism 7.0 (GraphPad, USA) and Ki affinity values were determined from the obtained IC50 values using the method of Cheng and Prusoff.

[4] = target: T4, human Adenosine A3 receptor (Homo sapiens, UniProt P0DMS8); experiment: Adenosine receptor TR-FRET binding assay (CA200645 displacement), A3
T4 sequence (P0DMS8 1-318): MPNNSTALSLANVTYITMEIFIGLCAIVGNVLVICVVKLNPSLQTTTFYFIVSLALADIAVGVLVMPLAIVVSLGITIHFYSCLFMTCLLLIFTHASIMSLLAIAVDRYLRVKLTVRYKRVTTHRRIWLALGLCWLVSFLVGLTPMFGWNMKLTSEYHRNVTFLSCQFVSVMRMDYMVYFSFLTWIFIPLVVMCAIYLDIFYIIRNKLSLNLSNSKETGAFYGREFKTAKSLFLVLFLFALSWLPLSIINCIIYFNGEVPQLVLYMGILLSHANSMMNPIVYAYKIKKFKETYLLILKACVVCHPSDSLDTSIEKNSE

T3 sequence (P29274 whole entry): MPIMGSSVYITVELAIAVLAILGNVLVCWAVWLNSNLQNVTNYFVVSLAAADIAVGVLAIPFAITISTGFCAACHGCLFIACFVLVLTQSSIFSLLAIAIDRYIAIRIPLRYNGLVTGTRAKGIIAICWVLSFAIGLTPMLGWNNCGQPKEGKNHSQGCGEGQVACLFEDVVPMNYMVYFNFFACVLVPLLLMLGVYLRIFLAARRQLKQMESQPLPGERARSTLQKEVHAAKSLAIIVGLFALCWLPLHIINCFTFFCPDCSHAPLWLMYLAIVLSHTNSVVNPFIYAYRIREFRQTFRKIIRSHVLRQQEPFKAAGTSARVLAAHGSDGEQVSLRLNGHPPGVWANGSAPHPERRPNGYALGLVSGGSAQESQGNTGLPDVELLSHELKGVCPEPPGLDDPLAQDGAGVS

Ki [1]	Ki [2]	Ki [3]	Ki [4]	Structure (SMILES)
39 nM	17 nM	13.3 nM	> 1000 nM	Cc1cc(-c2c(-c3cccc(C#N)c3)nn3ccc(N)nc23)cc(C(N)=O)n1 [Example 27.2, 4-[5-Amino-2-(3-cyanophenyl)pyrazolo[1,5-a]pyrimidin-3-yl]-6-methyl-pyridine-2-carboxamide]
7 nM	361 nM	0.9 nM	> 1000 nM	Cc1cc(-c2c(-c3cccc(C#N)c3)nn3ccc(C(=O)NC[C@@H](C)O)nc23)cc(Cl)n1 [Example 6.5, 3-(2-Chloro-6-methyl-4-pyridyl)-2-(3-cyanophenyl)-N-[(2R)-2-hydroxypropyl]pyrazolo[1,5-a]pyrimidine-5-carboxamide]
149 nM	1100 nM	3.2 nM	> 1000 nM	Cc1cc(-c2c(-c3cccc(C#N)c3)nn3ccc(N4C[C@@H]5NCCO[C@H]5C4)nc23)cc(Cl)n1 [Example 4.4]
13 nM	112 nM	9.8 nM	> 1000 nM	Cc1cc(-c2c(-c3cccc(C#N)c3)nn3ccc(NC(=O)NCC(C)(C)N)nc23)cc(Cl)n1 [Example 31.4, 1-(2-Amino-2-methyl-propyl)-3-[3-(2-chloro-6-methyl-4-pyridyl)-2-(3-cyanophenyl)pyrazolo[1,5-a]pyrimidin-5-yl]urea trifluoroacetate]
21 nM	32 nM	2.8 nM	> 1000 nM	Cc1cc(-c2c(-c3cccc(C#N)c3)nn3ccc(NCCN4CCOCC4)nc23)cc(Cl)n1 [Example 2.19]
51 nM	28 nM	0.7 nM	> 1000 nM	Cc1cc(-c2c(-c3cccc(C#N)c3)nn3ccc(C(=O)NCC4(C)CCC(=O)NC4)nc23)cc(C)n1 (stereo not shown) [Example 92.18]
1 nM	53 nM	6.8 nM	> 1000 nM	Cc1cc(-c2c(-c3cccc(C#N)c3)nn3ccc(NCC4(O)CNC4)nc23)cc(Cl)n1 [Example 4.11, 3-[3-(2-chloro-6-methyl-4-pyridyl)-5-[(3-hydroxyazetidin-3-yl)methylamino]pyrazolo[1,5-a]pyrimidin-2-yl]benzonitrile trifluoroacetate]
12 nM	43 nM	3.3 nM	> 1000 nM	Cc1cc(-c2c(-c3cccc(C#N)c3)nn3ccc(NCC(C)(C)N)nc23)cc(Cl)n1 [Example 4.10, trifluoroacetate]
26 nM	150 nM	1 nM	> 1000 nM	Cc1cc(-c2c(-c3cccc(C#N)c3)nn3ccc(C(=O)NC[C@H]4CCC(=O)N4)nc23)cc(C)n1 [Example 92.9]
39 nM	522 nM	8.3 nM	2550 nM	Cc1cc(-c2c(-c3cccc(C#N)c3)nn3ccc(C(=O)NS(C)(=O)=O)nc23)cc(Cl)n1 [Example 6.8, 3-(2-Chloro-6-methyl-4-pyridyl)-2-(3-cyanophenyl)-N-methylsulfonyl-pyrazolo[1,5-a]pyrimidine-5-carboxamide]
15 nM	184 nM	2 nM	> 1000 nM	Cc1cc(-c2c(-c3cccc(C#N)c3)nn3ccc(NC(=O)[C@](C)(O)C(F)(F)F)nc23)cc(C)n1 [Example 94.3, (2S)—N-[2-(3-Cyanophenyl)-3-(2,6-dimethyl-4-pyridyl)pyrazolo[1,5-a]pyrimidin-5-yl]-3,3,3-trifluoro-2-hydroxy-2-methyl-propanamide]
61 nM	898 nM	134 nM	> 1000 nM	CCn1nccc1-c1c(-c2cccc(C#N)c2)nn2ccc(N3CCNCC3)nc12 [Example 33.6]
23 nM	366 nM	7.7 nM	> 1000 nM	Cc1cc(-c2c(-c3cccc(C#N)c3)nn3ccc(N4CCS(=N)(=O)CC4)nc23)cc(Cl)n1 [Example 2.26]
69 nM	634 nM	5.4 nM	> 1000 nM	Cc1cc(-c2c(-c3cccc(C#N)c3)nn3ccc(C(=O)NC4CNC(=O)C4)nc23)cc(C)n1 (stereo not shown) [Example 92.25]
29 nM	9 nM	3.3 nM	1650 nM	Cc1cc(-c2c(-c3cccc(C#N)c3)nn3ccc(O[C@@H]4CCCNC4)nc23)cc(Cl)n1 [Example 24.1, 3-[3-(2-Chloro-6-methyl-4-pyridyl)-5-[[(3R)-3-piperidyl]oxy]pyrazolo[1,5-a]pyrimidin-2-yl]benzonitrile]
3060 nM	313 nM	345 nM	> 1000 nM	N#Cc1c(-c2ccco2)nn2ccc(NC[C@@H]3CNCCO3)nc12 [Example 42, 2-(2-Furyl)-5-[[(2S)-morpholin-2-yl]methylamino]pyrazolo[1,5-a]pyrimidine-3-carbonitrile hydrochloride]
2 nM	81 nM	11.6 nM	> 1000 nM	Cc1cc(-c2c(-c3cccc(C#N)c3)nn3ccc(NCC(N)=O)nc23)cc(Cl)n1 [Example 2.28]
5 nM	26 nM	1.3 nM	> 1000 nM	Cc1cc(-c2c(-c3cccc(C#N)c3)nn3ccc(NC(=O)NCC(C)(C)O)nc23)cc(Cl)n1 [Example 30.1, 1-[3-(2-Chloro-6-methyl-4-pyridyl)-2-(3-cyanophenyl)pyrazolo[1,5-a]pyrimidin-5-yl]-3-(2-hydroxy-2-methyl-propyl)urea]
9 nM	1410 nM	26.5 nM	> 1000 nM	Cc1cc(-c2c(-c3cccc(C#N)c3)nn3ccc(N4CCN(S(N)(=O)=O)CC4)nc23)cc(Cl)n1 [Example 2.37]
56 nM	144 nM	15.2 nM	> 1000 nM	Cc1cc(-c2c(-c3cccc(C#N)c3)nn3ccc(N)nc23)cc(N(C)C)n1 [Example 29, 3-[5-Amino-3-[2-(dimethylamino)-6-methyl-4-pyridyl]pyrazolo[1,5-a]pyrimidin-2-yl]benzonitrile]
36 nM	398 nM	69.5 nM	> 1000 nM	N#Cc1c(-c2ccco2)nn2ccc(NCC3CCN(Cc4ccccc4)CC3)nc12 [Example 37.9]
57 nM	76 nM	1.3 nM	> 1000 nM	Cc1cc(-c2c(-c3cccc(C#N)c3)nn3ccc(N4CCN(C)C(CO)C4)nc23)cc(Cl)n1 (stereo not shown) [Example 2.7]
626 nM	2530 nM	116 nM	> 1000 nM	Cc1cc(-c2c(-c3cccc(C#N)c3)nn3ccc(CN4CCNCC4)nc23)cc(C)n1 [Example 20.1, 3-[3-(2,6-Dimethyl-4-pyridyl)-5-(piperazin-1-ylmethyl)pyrazolo[1,5-a]pyrimidin-2-yl]benzonitrile trifluoroacetate]
3 nM	137 nM	4.9 nM	> 1000 nM	Cc1cc(-c2c(-c3cccc(C#N)c3)nn3ccc(C(=O)NCC4CNCCO4)nc23)cc(Cl)n1 (stereo not shown) [Example 7.11, 3-(2-Chloro-6-methyl-4-pyridyl)-2-(3-cyanophenyl)-N-(morpholin-2-ylmethyl)pyrazolo[1,5-a]pyrimidine-5-carboxamide]
70 nM	551 nM	15.8 nM	> 1000 nM	Cc1cc(-c2c(-c3cccc(C#N)c3)nn3ccc(O)nc23)cc(Cl)n1 [Example 2.31]
15 nM	200 nM	10.8 nM	> 1000 nM	Cc1cc(-c2c(-c3cccc(C#N)c3)nn3ccc(NC(=O)N[C@H]4CCNC4)nc23)cc(Cl)n1 [Example 31.1, 1-[3-(2-Chloro-6-methyl-4-pyridyl)-2-(3-cyanophenyl)pyrazolo[1,5-a]pyrimidin-5-yl]-3-[(3S)-pyrrolidin-3-yl]urea trifluoroacetate]
24 nM	581 nM	2.5 nM	> 1000 nM	Cc1cc(-c2c(-c3cccc(C#N)c3)nn3ccc(C(=O)NCC4CC(O)C4)nc23)cc(Cl)n1 (stereo not shown) [Example 6.10, 3-(2-Chloro-6-methyl-4-pyridyl)-2-(3-cyanophenyl)-N-[(3-hydroxycyclobutyl)methyl]pyrazolo[1,5-a]pyrimidine-5-carboxamide]

Structure (SMILES)	Ki [1]	Ki [2]	Ki [3]	Ki [4]
Cc1cc(-c2c(-c3cccc(C#N)c3)nn3ccc(NC4CN5CCC4CC5)nc23)cc(Cl)n1 (stereo not shown) [Example 2.17]	6 nM	45 nM	2.4 nM	> 1000 nM
